Entries after “also recorded” stand apart in the source; their conditions may differ.

Experimental findings from PMC7948422, “Repurposing p97 inhibitors for chemical modulation of the bacterial ClpB–DnaK bichaperone system” (The Journal of Biological Chemistry, 2020) are described below.

In assay [1] the target is glucose-6-phosphate dehydrogenase (G6PDH) (Leuconostoc mesenteroides, UniProt P11411). Description: Native G6PDH activity. It counts as biochemical. Particulars: increasing DBeQ concentration. As to the method:
G6PDH was chemically denatured by mixing 5 μl of the G6PDH stock solution (441 μM) with 5 μl of buffer A (10 M urea, 16% glycerol, 40-mM DTT) preheated at 47 °C. The samples of G6PDH in buffer A were incubated for 5 min at 47 °C. Subsequently, 5 μl of denatured G6PDH was mixed with 95 μl of buffer B (50-mM Tris-HCl, pH 7.4, 20-mM Mg(OAc)2, 30-mM KCl, 1-mM EDTA, 1-mM β-mercaptoethanol) preheated at 47 °C to initiate protein refolding, which, under these conditions, is inefficient and leads to misfolding and aggregation of G6PDH ([69]). G6PDH aggregate production was arrested after 1 min (for refolding by KJE) or 15 min (for refolding by KJE with ClpB) by transferring into ice for 2 min. […] The plate was inserted into Synergy H1 plate reader (BioTek, Winooski, VT) with the chamber temperature at 30 °C, and the sample absorbance at 340 nm was measured after 10 min. The amount of NADPH produced was calculated based on the NADPH molar extinction coefficient, Ɛ340 = 6220 [M^−1 ⋅ cm^−1]. […]
conditions. The ATPase activity of wt ClpB was determined at 37 and 45 °C as the function of DBeQ concentration. […]
Supplementary Figure 7. […] (A) Firefly luciferase activity was determined in the absence (DMSO) or in the presence 100 µM ClpB inhibitor candidates. […] (B) G6PDH activity was determined in the presence of an increasing concentration of DBeQ and normalized to the DMSO control. […]

Assay [2] deals with T1, DnaK (Escherichia coli, UniProt P0A6Y8).
T1 construct: full-length E. coli DnaK (residues 1–638); made in house; host or cells: E. coli BL21(DE3)
T1 sequence (P0A6Y8 whole entry, the tested form may be a part): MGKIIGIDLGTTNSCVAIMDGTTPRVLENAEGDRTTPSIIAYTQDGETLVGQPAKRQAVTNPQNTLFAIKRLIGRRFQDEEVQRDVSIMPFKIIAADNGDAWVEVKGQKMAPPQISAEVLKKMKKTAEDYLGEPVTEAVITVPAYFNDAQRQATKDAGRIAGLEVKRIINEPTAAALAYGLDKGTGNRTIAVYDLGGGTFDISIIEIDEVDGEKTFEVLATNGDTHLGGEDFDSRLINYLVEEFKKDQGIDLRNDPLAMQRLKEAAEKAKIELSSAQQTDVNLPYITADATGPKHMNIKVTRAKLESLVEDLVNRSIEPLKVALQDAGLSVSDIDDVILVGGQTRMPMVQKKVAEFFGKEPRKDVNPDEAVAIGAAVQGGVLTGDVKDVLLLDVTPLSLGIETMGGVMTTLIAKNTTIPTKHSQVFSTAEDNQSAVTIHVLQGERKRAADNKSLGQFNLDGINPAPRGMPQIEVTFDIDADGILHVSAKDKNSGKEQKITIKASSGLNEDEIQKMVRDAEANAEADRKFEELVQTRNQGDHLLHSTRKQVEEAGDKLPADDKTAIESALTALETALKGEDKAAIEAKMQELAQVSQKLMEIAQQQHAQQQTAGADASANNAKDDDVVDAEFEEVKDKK
As to the kind of experiment: DnaK ATPase activity assay. It counts as biochemical. Particulars: 100 µM DBeQ, 37 °C. As to the method: To determine the ATPase activity of DnaK, 18 μl of DnaK solution or DnaK NBD solution prepared in buffer C was mixed with 1 μl of the investigated compounds or DMSO as a control. Samples without DnaK were used as control blanks. The samples were preincubated for 10 min at 37 °C. The reaction was initiated by adding 1 μl of 100-mM ATP bringing the final concentration of DnaK to 1.1 μM or DnaK NBD to 3.4 μM. The samples were incubated at 37 °C for 70 min for DnaK or 75 min for NBD. The concentration of inorganic phosphate produced from ATP in the presence of DnaK was determined as described above for ClpB.

Assay [3] deals with T2, ClpB (Escherichia coli, UniProt P63284).
T2 construct: made in house
T2 sequence (P63284 whole entry): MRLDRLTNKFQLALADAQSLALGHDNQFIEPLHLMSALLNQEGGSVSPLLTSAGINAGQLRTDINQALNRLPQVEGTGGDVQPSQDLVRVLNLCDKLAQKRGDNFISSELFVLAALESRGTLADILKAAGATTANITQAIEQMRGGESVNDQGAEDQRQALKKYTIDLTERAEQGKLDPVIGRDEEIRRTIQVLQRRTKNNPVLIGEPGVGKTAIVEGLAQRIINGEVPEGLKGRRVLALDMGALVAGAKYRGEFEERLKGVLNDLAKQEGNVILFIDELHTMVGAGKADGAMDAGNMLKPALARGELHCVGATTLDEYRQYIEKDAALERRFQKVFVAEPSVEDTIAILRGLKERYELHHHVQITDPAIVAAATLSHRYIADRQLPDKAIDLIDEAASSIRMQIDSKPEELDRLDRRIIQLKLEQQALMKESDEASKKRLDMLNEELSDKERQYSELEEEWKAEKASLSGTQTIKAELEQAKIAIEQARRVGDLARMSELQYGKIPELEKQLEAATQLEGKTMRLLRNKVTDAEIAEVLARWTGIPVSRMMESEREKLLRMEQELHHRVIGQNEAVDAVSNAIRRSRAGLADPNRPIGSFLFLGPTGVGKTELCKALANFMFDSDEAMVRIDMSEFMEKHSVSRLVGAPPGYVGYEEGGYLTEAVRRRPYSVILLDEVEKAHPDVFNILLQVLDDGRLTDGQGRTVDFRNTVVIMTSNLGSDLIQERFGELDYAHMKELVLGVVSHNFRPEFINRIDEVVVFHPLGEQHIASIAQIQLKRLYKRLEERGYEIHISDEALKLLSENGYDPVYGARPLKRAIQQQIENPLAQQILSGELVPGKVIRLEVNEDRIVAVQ
Description: Pilot chemical library screen of ClpB ATPase (BioMol Green). The assay is classed as biochemical. As to conditions: 388 bioactive compounds, in the presence of 25 μM κ-casein. The method, then:
An absorbance-based assay for ClpB ATPase activity was developed by using BioMol Green Reagent (Enzo Life Sciences, Farmington, NY) for screening in a 384-microplate–based format. The optimized assay conditions were as follows: ClpB (150 nM), ATP ([…]), and κ-casein (25 μM) in 100-mM Tris/HCl, pH 8, 10-mM MgCl2, 1-mM DTT, and 1-mM EDTA. The samples were incubated for 10 min at 37 °C, and the ATP hydrolysis reaction was terminated by adding 80 μl of BIOMOL Green. Absorbance at 620 nm was measured with a PerkinElmer EnSpire. The optimized assay was used to screen compounds drawn from Selleck Bioactive library (1900 compounds; Selleck Chemicals, Houston, TX) in the presence or absence of κ-casein.

Assay [4] deals with E. coli dnaK756. As to the kind of experiment: Bacterial viability, dnaK756. It counts as cell-based, Escherichia coli. As to conditions: 45 °C. As to the method: E. coli MC4100, MC4100ΔclpB, dnaK103, and dnaK756 strains were used to determine an influence of DBeQ on bacterial growth and viability. Bacteria were maintained in the LB media, and in the case of the MC4100ΔclpB strain, LB was supplemented with 30 μg/ml kanamycin. All experiments were initiated by preparing overnight cultures inoculated from single colonies and grown at 37 °C. The dnaK103 and dnaK756 overnight cultures were grown at 30 °C. On the following day, the cultures were diluted 100-fold in 10 ml of LB without antibiotics and incubated at 37 °C. The culture optical density was monitored at 600 nm. When absorbance at 600 nm reached 0.4, the culture was divided into 1-ml aliquots and supplemented with 10 μl of DMSO or different concentrations of DBeQ in DMSO. The samples were immediately transferred into an incubator/shaker at temperature 37, 45, or 50 °C. Bacteria were cultured for up to 4 h with shaking (200 RPM). At specific time points, 100 μl of each culture was withdrawn and serially diluted in sterile 0.9% NaCl up to 10^6-fold dilution. To estimate the number of viable cells, 5 μl or 10 μl of the diluted cultures was spread on the LB-agar plate without an antibiotic. […] On the following day, the bacterial colonies were counted and the colony-forming units/ml were calculated.

glucose-6-phosphate dehydrogenase (G6PDH), sequence (P11411 whole entry): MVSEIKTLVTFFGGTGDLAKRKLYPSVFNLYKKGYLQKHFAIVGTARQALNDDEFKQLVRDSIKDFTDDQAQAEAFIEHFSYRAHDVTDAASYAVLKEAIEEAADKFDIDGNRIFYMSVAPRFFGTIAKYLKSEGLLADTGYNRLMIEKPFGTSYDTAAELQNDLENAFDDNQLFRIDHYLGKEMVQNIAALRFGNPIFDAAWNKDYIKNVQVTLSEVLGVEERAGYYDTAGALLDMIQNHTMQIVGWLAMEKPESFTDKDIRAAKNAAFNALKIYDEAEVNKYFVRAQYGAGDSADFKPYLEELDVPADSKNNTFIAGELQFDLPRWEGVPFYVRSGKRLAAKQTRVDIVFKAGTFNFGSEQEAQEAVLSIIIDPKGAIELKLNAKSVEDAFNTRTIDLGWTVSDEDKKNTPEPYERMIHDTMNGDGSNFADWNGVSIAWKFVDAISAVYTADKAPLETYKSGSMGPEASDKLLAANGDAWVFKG

Consider `c1ccc(CNc2nc(NCc3ccccc3)c3ccccc3n2)cc1` [DBeQ, N^2,N^4-dibenzylquinazoline-2,4-diamine], for which, in assay [1], the “effect on native G6PDH activity” value was “not affected”. The “effect on DnaK ATPase activity” value in assay [2] is given as “did not detect inhibition; also recorded: did not affect”. In assay [3], the “candidate ClpB ATPase inhibitor in pilot screen” value is recorded as “candidate ClpB ATPase inhibitor”. Further, the “effect on viability of dnaK756” value in assay [4] was “not affected”.
